Data: ChEMBL document CHEMBL6134845, “O-derivatization of natural tropolone and β-thujaplicin leading to effective inhibitors of human carbonic anhydrases IX and XII” (Eur J Med Chem, 2025)

Tests used:
[1] = molecular target: Carbonic anhydrase 9 (Homo sapiens, UniProt Q16790)
Description: Inhibition of human CA-IX incubated for 15 mins by stopped-flow CO2 hydration assay

[2] = molecular target: Carbonic anhydrase 7 (Homo sapiens, UniProt P43166); test: Inhibition of human CA-VII incubated for 15 mins by stopped-flow CO2 hydration assay
[3] = molecular target: Carbonic anhydrase 1 (Homo sapiens, UniProt P00915); test: Inhibition of human CA-I incubated for 15 mins by stopped-flow CO2 hydration assay
Chain of Carbonic anhydrase 1 (P00915 whole entry): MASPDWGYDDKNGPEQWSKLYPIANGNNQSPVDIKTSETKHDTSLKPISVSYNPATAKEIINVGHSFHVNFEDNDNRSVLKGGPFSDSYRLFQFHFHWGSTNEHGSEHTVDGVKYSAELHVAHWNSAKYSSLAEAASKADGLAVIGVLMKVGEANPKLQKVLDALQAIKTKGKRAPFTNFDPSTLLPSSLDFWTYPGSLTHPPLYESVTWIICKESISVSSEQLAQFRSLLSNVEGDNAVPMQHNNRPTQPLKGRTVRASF

[4] = molecular target: Carbonic anhydrase 5A, mitochondrial (Homo sapiens, UniProt P35218); test: Inhibition of human CA-VA incubated for 15 mins by stopped-flow CO2 hydration assay
Chain of Carbonic anhydrase 5A, mitochondrial (P35218 whole entry): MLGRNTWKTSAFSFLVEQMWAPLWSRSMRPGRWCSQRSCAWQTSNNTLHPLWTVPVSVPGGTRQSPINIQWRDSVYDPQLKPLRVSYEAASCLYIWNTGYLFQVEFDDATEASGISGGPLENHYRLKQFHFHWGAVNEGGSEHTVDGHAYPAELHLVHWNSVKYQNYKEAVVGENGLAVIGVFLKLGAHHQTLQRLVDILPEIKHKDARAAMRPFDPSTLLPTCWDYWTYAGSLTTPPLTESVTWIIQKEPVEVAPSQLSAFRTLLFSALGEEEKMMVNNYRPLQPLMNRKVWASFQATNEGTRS

[5] = molecular target: T1, Carbonic anhydrase 2 (Homo sapiens, UniProt P00918); test: Inhibition of wild-type human CA-II using p-nitrophenylacetate as substrate preincubated for 15 mins followed by substrate addition measured for 20 mins by absorbance based assay
[6] = Inhibition of […] human CA-II L198G mutant using p-nitrophenylacetate as substrate preincubated for 15 mins followed by substrate addition measured for 20 mins by absorbance based assay
[7] = species: Homo sapiens; test: Inhibition of […] human CA-II H94D mutant using p-nitrophenylacetate as substrate at 500 uM preincubated for 10 mins followed by substrate addition by absorbance based assay relative to control
[8] = molecular target: T1, Carbonic anhydrase 2; test: Inhibition of wild-type human CA-II using p-nitrophenylacetate as substrate at 500 uM preincubated for 10 mins followed by substrate addition by absorbance based assay relative to control
[9] = species: Homo sapiens; test: Inhibition of […] human CA-II H94C mutant using p-nitrophenylacetate as substrate at 500 uM preincubated for 10 mins followed by substrate addition by absorbance based assay relative to control
[10] = molecular target: Carbonic anhydrase 12 (Homo sapiens, UniProt O43570); test: Inhibition of human CA-XII incubated for 15 mins by stopped-flow CO2 hydration assay
Chain of Carbonic anhydrase 12 (O43570 whole entry): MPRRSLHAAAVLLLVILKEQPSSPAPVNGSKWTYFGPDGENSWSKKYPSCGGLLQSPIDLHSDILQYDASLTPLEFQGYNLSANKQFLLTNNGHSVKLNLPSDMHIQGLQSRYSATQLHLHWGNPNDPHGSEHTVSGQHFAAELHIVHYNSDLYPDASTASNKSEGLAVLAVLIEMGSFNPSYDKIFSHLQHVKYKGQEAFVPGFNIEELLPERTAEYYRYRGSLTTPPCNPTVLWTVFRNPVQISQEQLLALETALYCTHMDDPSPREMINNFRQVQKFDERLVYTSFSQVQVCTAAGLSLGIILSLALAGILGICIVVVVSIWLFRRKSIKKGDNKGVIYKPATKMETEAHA

[11] = molecular target: T1, Carbonic anhydrase 2; test: Inhibition of human CA-II incubated for 15 mins by stopped-flow CO2 hydration assay
[12] = Induction of apoptosis in human BZB-resistant NCI-H929 cells assessed as viable cells at 2.5 uM incubated for 48 hrs by Annexin V/7-AAD staining based FACS analysis (reference value: 86.7 %); assay type: functional; conditions: BZB-resistant […] cell, read-out: Activity
[13] = Induction of apoptosis in human BZB-resistant NCI-H929 cells assessed as viable cells at 10 uM incubated for 48 hrs by Annexin V/7-AAD staining based FACS analysis (reference value: 86.7 %); assay type: functional; conditions: BZB-resistant […] cell, read-out: Activity
[14] = Antiproliferative activity against human PBMC cells assessed as decrease in cell viability at 10 uM incubated for 48 hrs by Cell Titer Glo assay; assay type: toxicity, cell-based
[15] = Induction of apoptosis in human BZB-resistant NCI-H929 cells assessed as viable cells at 5 uM incubated for 48 hrs by Annexin V/7-AAD staining based FACS analysis (reference value: 86.7 %); assay type: functional; conditions: BZB-resistant […] cell, read-out: Activity

Chain of Carbonic anhydrase 7 (P43166 whole entry): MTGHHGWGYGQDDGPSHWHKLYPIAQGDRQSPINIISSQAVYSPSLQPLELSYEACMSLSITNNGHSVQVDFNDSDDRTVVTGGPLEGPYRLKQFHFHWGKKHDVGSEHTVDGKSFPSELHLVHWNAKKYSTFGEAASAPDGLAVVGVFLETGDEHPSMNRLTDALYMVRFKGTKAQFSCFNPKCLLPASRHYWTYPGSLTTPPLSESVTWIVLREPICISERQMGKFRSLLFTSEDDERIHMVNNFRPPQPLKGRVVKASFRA

Row | Structure (SMILES) | Ki [1] | Ki [2] | Ki [3] | Ki [4] | further results
1 | O=c1cccccc1OCc1ccccc1C(F)(F)F | 4.3 µM | 6.19 µM | > 100 µM | 6.63 µM | 
2 | CC(C)c1cccc(OCCCCCOc2cccc(C(C)C)cc2=O)c(=O)c1 | 1.33 µM | 7.1 µM | > 100 µM | 31.6 µM | 
3 | O=C(O)COc1cccccc1=O | 25.6 µM |  |  | 8.11 µM | 
4 | O=c1cccccc1OCc1ccccc1[N+](=O)[O-] | > 100 µM | > 100 µM | 8.01 µM | > 100 µM | 
5 | Cc1ccc(S(=O)(=O)Oc2cccccc2=O)cc1 | > 100 µM | > 100 µM | 94.2 µM | > 100 µM | 
6 | O=c1cccccc1S |  |  |  |  | Ki [5]: 96 µM; Ki [6]: 61 µM
7 | CC(C)c1cccc(=O)c(O)c1 [HINOKITIOL] | 23.9 µM | > 100 µM | 4.98 µM | 7.5 µM | inhibition [7]: 47%; inhibition [8]: 16%; inhibition [9]: 0%; Ki [10]: > 100 µM; Ki [11]: 90.6 µM
8 | O=C(Oc1cccccc1=O)C12CC3CC(CC(C3)C1)C2 | 43.5 µM |  |  | 85.6 µM | 
9 | CC(C)c1cccc(OCc2ccccc2[N+](=O)[O-])c(=O)c1 | 0.94 µM | 6.18 µM |  | 21.7 µM | 
10 | CC(C)c1cccc(OCc2ccc(Br)cc2)c(=O)c1 | 0.26 µM | 0.96 µM | > 100 µM | 7.95 µM | 
11 | O=c1cccccc1OCCCCl | 8.94 µM | 5.2 µM | > 100 µM |  | 
12 | C#CCOc1cccccc1=O |  |  | 0.05 µM | > 100 µM | 
13 | O=c1cccccc1O [TROPOLONE] | > 100 µM | > 100 µM | > 100 µM | > 100 µM | inhibition [7]: 47%; Ki [5]: 1350 µM; Ki [6]: 245 µM; inhibition [9]: 0%; Ki [10]: > 100 µM; Ki [11]: > 100 µM
14 | O=c1cccccc1OCc1cccc2ccccc12 | 2.28 µM | 2.82 µM | > 100 µM |  | 
15 | CC(C)c1cccc(=O)c(OCc2ccccc2[N+](=O)[O-])c1 | 1.41 µM | 5.41 µM | > 100 µM | 8.96 µM | 
16 | Cc1ccc(S(=O)(=O)Oc2cc(C(C)C)cccc2=O)cc1 | 0.42 µM | 9.33 µM | > 100 µM |  | viability at 2.5 µM [12]: 78.1%; viability at 10 µM [13]: 36.7%; Activity [14]: Non-toxic; viability at 5 µM [15]: 74.5%
17 | CC(C)c1cccc(OC(=O)c2ccc([N+](=O)[O-])cc2)c(=O)c1 | 0.37 µM | 9.6 µM | > 100 µM | > 100 µM | 
18 | O=c1cccccc1OCc1ccc(Br)cc1 | 37.7 µM |  | > 100 µM | > 100 µM | 
19 | O=C(Oc1cccccc1=O)c1ccc([N+](=O)[O-])cc1 | > 100 µM | > 100 µM | 84.4 µM |  | 
20 | O=c1cccccc1OCc1cccc([N+](=O)[O-])c1 | 34.5 µM | > 100 µM | > 100 µM |  | 
21 | O=c1cccccc1OCCCCCBr | 0.54 µM | 1.52 µM | > 100 µM |  | 
22 | Cc1ccc(S(=O)(=O)Oc2cccc(C(C)C)cc2=O)cc1 | 0.4 µM | 5.27 µM | > 100 µM | 4.45 µM | 
23 | CC(C)c1cccc(OCc2ccccc2C(F)(F)F)c(=O)c1 | > 100 µM | > 100 µM |  | > 100 µM | 
24 | N#Cc1ccc(COc2cccccc2=O)cc1 | > 100 µM | > 100 µM | 8.31 µM | > 100 µM | 
25 | CC(C)c1cccc(OCc2cccc3ccccc23)c(=O)c1 | 0.53 µM | 3.95 µM | > 100 µM | 89.4 µM | 
26 | O=c1cccccc1OCc1ccc([N+](=O)[O-])cc1 | 13.3 µM | > 100 µM | 6.22 µM | > 100 µM | 
27 | CC(C)c1cccc(=O)c(OCc2ccccc2C(F)(F)F)c1 |  | > 100 µM |  | 83.5 µM | 
